In brackets after ≈: the same amount, converted by molar mass.
Tests used:
Rumex obtusifolius = assay: Foliage treatment with different salts (Example 11); assay type: in vivo; set-up: key: 0 indicates no effect; 5 indicates complete kill; conditions: Rumex obtusifolius (Plant No. 14), 1000 liter per hectare
Description: Aqueous solutions containing different salts of Phosalacine at different concentrations as active ingredients and 0.1% of octylphenylpolyoxy ethanol as surfactant were applied at a rate of 1000 liter per hectare to Rumex obtusifolius (Plant No. 14) at a certain stage of growth. 21 days after foliage treatment, damage to the plant was visually assessed on a scale of 0 to 5 as hereinbefore described. The salts used were prepared by the methods described in the reference mentioned above.

Killifishes (Medaka) = assay: Acute toxicity to fish, survival ratio (Example 13); assay type: in vivo; conditions: for Survival ratio (%): killifish, 100 ppm
Description: Killifishes (Japanese name, Medaka), were obtained from a market and maintained in a water bath at 25±2° C. for a week. Then the fishes (each group consisting of 10 fishes) were placed in water baths containing the test compounds at given concentrations as shown in the following Table. 24 and 48 hours after this, the survival ratio (%) of each group was visually counted to assess the acute toxity.

Bacillus cereus KB143 = assay: MIC by agar dilution method; assay type: cell-based; conditions: medium A Davis's minimal medium (pH 7.0)
Proteus vulgaris KB127 = assay: MIC by agar dilution method; assay type: cell-based; conditions: medium A Davis's minimal medium (pH 7.0)
Aspergillus niger KF105 = assay: MIC by agar dilution method; assay type: cell-based; conditions: medium B Dextrose Czapek' medium
various plants = assay: Inhibition of regrowth one month after foliage treatment (Example 8); assay type: in vivo; conditions: visually assessed, compared with SF-1293
Description: Aqueous solutions of Phosalacine (Na salt) at different concentrations were applied at a rate of 1500 liters per hectare to naturally occurring plants or plants which were cultured on plates as shown in the following Table at certain stages of growth. The Phosalacine applied contained 0.1% of octylphenylpolyoxy ethanol as surfactant. 7 and 14 days after the foliage treatment, damage to the plants was visually assessed on a scale of from 0 to 5 where 0 indicates no effect and 5 indicates complete kill. […] One month after the foliage treatment, the inhibition of regrowth of the plants was visually investigated.
One month after the foliage treatment, the inhibition of regrowth of the plants was visually assessed.

[1] = tested on: Staphylococcus aureus KB210; assay: MIC by agar dilution method; assay type: cell-based; conditions: medium A Davis's minimal medium (pH 7.0)
[2] = tested on: Klebsiella pneumoniae KB214; assay: MIC by agar dilution method; assay type: cell-based; conditions: medium A Davis's minimal medium (pH 7.0)
Candida albicans KFl = assay: MIC by agar dilution method; assay type: cell-based; conditions: medium B Dextrose Czapek' medium
Bacillus subtilis KB211 = assay: MIC by agar dilution method; assay type: cell-based
Chamaecyparis obtusa = assay: Foliage treatment of woody plants (Example 10); assay type: in vivo; conditions: even when applied at a concentration of 0.5%
Excerpt: (§1) Aqueous solutions containing Phosalacine (Na salt) at different concentrations and 0.1% of octylphenylpolyoxy ethanol as surfactant were applied at a rate of 1500 liter per hectare to woody plants of about 60-70 cm in height. 7 and 14 days after the foliage treatment, damage to the plants was visually assessed on a scale of from 0 to 5 (cf. Example 7).

Cryptomeria japonica = assay: Foliage treatment of woody plants (Example 10); assay type: in vivo; conditions: in vivo
Excerpt: as §1

Micrococcus luteus KB212 = assay: MIC by agar dilution method; assay type: cell-based; conditions: medium A Davis's minimal medium (pH 7.0)
Escherichia coli KB176 = assay: MIC by agar dilution method; assay type: cell-based; conditions: medium A Davis's minimal medium (pH 7.0)
Piricularia oryzae KF180 = assay type: cell-based; conditions: medium B Dextrose Czapek' medium
[3] = Acute toxicity in mice per os, body weight (Example 14); assay type: in vivo, Mice ICR (RJ) strain; conditions: for Body weight: 500 mg/kg per os
Description: Mice [ICR (RJ) strain; female; 6 weeks after birth; each group consisting of 10 mice] were used as test animals to investigate the acute toxity of Phosalacine in mice. A 1% aqueous solution (free acid) was forcibly administered per os to each animal and the body weight of each animal was measured 7 and 14 days after administration. Separately, a similar test was effected by administering Phosalacine (free acid) at a dose of 100 mg/kg.

Escherichia coli KB213 = assay: MIC by agar dilution method; assay type: cell-based; conditions: medium A Davis's minimal medium (pH 7.0)
Excerpt: The minimum inhibitory concentrations (MIC values) of Phosalacine were investigated in conventional manner by the agar dilution method and the results are indicated in the following Table, from which it is apparent that Phosalacine is active against various Gram-positive and Gram-negative bacteria and fungi.
[Notes: A . . . Davis's minimal medium (pH 7.0), B . . . Dextrose Czapek'

Mucor racemosus KF223 = assay: MIC by agar dilution method; assay type: cell-based; conditions: medium B Dextrose Czapek' medium
[4] = tested on: Staphylococcus aureus KB199; assay: MIC by agar dilution method; assay type: cell-based; conditions: medium A Davis's minimal medium (pH 7.0)
Erwinia aroideae KB148 = assay: MIC by agar dilution method; assay type: cell-based; conditions: medium A Davis's minimal medium (pH 7.0)
[5] = Physico-chemical characteristics: acid/base nature; assay type: physicochemical
Digitaria adscendens = assay: Foliage treatment of seedlings in pots (Example 7); assay type: in vivo; conditions: 10 days after foliage treatment, 1000 liter per hectare
Description: Upland soil was put in a pot of 10 cm diameter and the seeds of Digitaria adscendens were sown in the soil at a depth of 1 cm from the surface. When the height of the seedlings was about 10 cm, aqueous solutions of the test compounds as shown in the following Table were uniformly sprayed on the plants at a rate of 1.2 ml per plant, equivalent to 1000 liter per hectare. 10 days after the foliage treatment, damage to plants was visually assessed on a scale of from 0 to 10, where 0 indicates no effect and 10 indicates complete kill.

## CC(C)CC(NC(=O)C(C)NC(=O)C(N)CCP(C)(=O)[O-])C(=O)[O-].[K+].[K+] (centres unmarked) [Di Ka salt]
Rumex obtusifolius; 0.05%
  Damage to plants after 21 days, scale 0 to 5: 3
Rumex obtusifolius; 0.1%
  Damage to plants after 21 days, scale 0 to 5: 5

## CC(C)CC(NC(=O)C(C)NC(=O)C(N)CCP(C)(=O)[O-])C(=O)[O-].[Na+].[Na+] (centres unmarked) [Di Na salt]
Rumex obtusifolius; 0.05%
  Damage to plants after 21 days, scale 0 to 5: 3
Rumex obtusifolius; 0.1%
  Damage to plants after 21 days, scale 0 to 5: 5

## CPCC[C@H](N)C(=O)O (stereo partly drawn) [L-2-amino-4-methylphosphino butyric acid, reference compound]
Killifishes (Medaka); 24 hours
  Survival ratio (%): 0%
Killifishes (Medaka); 48 hours
  Survival ratio (%): 0%

## CC(C)CC(NC(=O)C(C)NC(=O)C(N)CCP(C)(=O)O)C(=O)O.CC(C)N (centres unmarked) [Mono isopropylamine salt]
Rumex obtusifolius; 0.05%
  Damage to plants after 21 days, scale 0 to 5: 3
Rumex obtusifolius; 0.1%
  Damage to plants after 21 days, scale 0 to 5: 5

## CC(C)CC(NC(=O)C(C)NC(=O)C(N)CCP(C)(=O)O)C(=O)O.CCCCN (centres unmarked) [Mono n-butylamine salt]
Rumex obtusifolius; 0.05%
  Damage to plants after 21 days, scale 0 to 5: 3
Rumex obtusifolius; 0.1%
  Damage to plants after 21 days, scale 0 to 5: 5

## CC(C)C[C@H](NC(=O)[C@H](C)NC(=O)[C@@H](N)CCP(C)(=O)O)C(=O)O [Phosalacine, phosphinothricyl-alanyl leucine]
Bacillus cereus KB143
  MIC: 0.4 µg/mL (≈ 1.09 µM)
Proteus vulgaris KB127
  MIC: 25 µg/mL (≈ 68.4 µM)
Aspergillus niger KF105
  MIC: > 100 µg/mL
Various plants
  inhibition of regrowth of the plants: equal or superior to that of SF-1293
[1]
  MIC: 0.4 µg/mL (≈ 1.09 µM)
[2]
  MIC: 25 µg/mL (≈ 68.4 µM)
Candida albicans KFl
  MIC: > 100 µg/mL
Bacillus subtilis KB211; Bacillus subtilis KB211, medium A Davis's minimal medium (pH 7.0)
  MIC: 0.4 µg/mL (≈ 1.09 µM)
Bacillus subtilis KB211; synthetic media
  Effect of glutamine on activity against Bacillus subtilis: competitively antagonised by glutamine
Chamaecyparis obtusa
  herbicidal activity against Chamaecyparis obtusa: not herbicidally active
Cryptomeria japonica
  herbicidal activity against Cryptomeria japonica: relatively low herbicidal activity
Micrococcus luteus KB212
  MIC: 6.25 µg/mL (≈ 17.1 µM)
Escherichia coli KB176
  MIC: 25 µg/mL (≈ 68.4 µM)
Piricularia oryzae KF180
  MIC: 0.1 µg/mL (≈ 0.274 µM)
[3]; After 0 days
  Body weight: 23.9 g
[3]; After 7 days
  Body weight: 24.5 g
[3]; After 14 days
  Body weight: 26.2 g
[3]; dose of 100 mg/kg
  change of body weight: No significant change of body weight
[3]; per os
  acute toxity to mice: very low
Escherichia coli KB213
  MIC: 12.5 µg/mL (≈ 34.2 µM)
Mucor racemosus KF223
  MIC: 6.25 µg/mL (≈ 17.1 µM)
[4]
  MIC: 0.2 µg/mL (≈ 0.547 µM)
Erwinia aroideae KB148
  MIC: < 0.05 µg/mL
Killifishes (Medaka); fish
  acute toxity against fish, comparison: less than that of glyphosate and SF-1293
[5]
  Acid/base nature: Amphoteric

## CC(C)C[C@H](NC(=O)[C@H](C)NC(=O)[C@@H](N)CCP(C)(=O)O)C(=O)O.CCNCC [monodiethylamine salt]
Digitaria adscendens; Concentration 0.01 ppm
  damage to plants, scale 0 to 10: 5 (50)
Digitaria adscendens; Concentration 0.03 ppm
  damage to plants, scale 0 to 10: 10 (100)
Digitaria adscendens; Concentration 0.1 ppm
  damage to plants, scale 0 to 10: 10 (100)

Source: patent publication US4613355A, “Antibiotic having herbicidal activity” (Satoshi Omura, priority 1983, dated 1986)
